Measurements published in US20140234868A1, “USE FOR GLYCOLIPOPROTEIN GINTONIN, ISOLATED AND IDENTIFIED FROM GINSENG, AS A NATURAL MEDICAL-PLANT DERIVED LIGAND” (KONKUK UNIVERSITY INDUSTRIAL COOPERATION CORP., priority 2011, published 2014).

Experiments:
LPA3 receptor = biological target: T1, LPA3 receptor (Homo sapiens, UniProt Q9UBY5); assay: Intracellular free Ca2+ (Fura-2AM) in LPA3-expressing B103 cells; type: cell-based; details: LPA3 receptor-expressing B103 cells; read-out: EC50, intracellular calcium increase
T1 construct: host or cells: B103 rat neuroblastoma cells
T1 sequence (Q9UBY5 1-353): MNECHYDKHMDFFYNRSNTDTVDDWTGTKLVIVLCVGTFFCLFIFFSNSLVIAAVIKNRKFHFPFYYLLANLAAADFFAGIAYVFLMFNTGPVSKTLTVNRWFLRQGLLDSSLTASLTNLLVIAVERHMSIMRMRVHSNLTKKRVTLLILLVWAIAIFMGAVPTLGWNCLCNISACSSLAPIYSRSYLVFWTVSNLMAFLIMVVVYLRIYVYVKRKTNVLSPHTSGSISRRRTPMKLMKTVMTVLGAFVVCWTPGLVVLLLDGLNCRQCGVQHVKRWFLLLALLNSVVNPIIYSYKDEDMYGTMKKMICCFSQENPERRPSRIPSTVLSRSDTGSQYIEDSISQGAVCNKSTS
Description: (§1) LPA family receptors are endogenous to cells of most organs. B103 rat neuroblastoma cells, known as LPA receptor-null cells (Valentine et al., Biochim Biophys Acta 1780. 597-605) were transiently transfected with a plasmid (vector) carrying one of genes coding for LPA1(edg-2), LPA2(edg-4), LPA3(edg-7), LPA4, LPA5 and LPA6 receptors or a plasmid carrying none of them (empty vector). Two or three days after transfection, the cells are suspended, and made permeable. Then, the permeable cells are treated with Fura-2AM, a fluorescent dye binding to calcium, and then with gintonin, followed by spectrofluorephotometry to examine whether gintonin induces an increase in intracellular free Ca^2+ level.
(1) preparing large quantities of plasmids carrying respective LPA family receptor genes and an empty plasmid carrying none of them through amplification and purification (maxi-preparation); (2) verifying the expression of LPA receptors wherein B103 cells are transfected with haematoglutin (HA)-tagged LPA receptors, and then subjected to Western blotting analysis using an anti-HA primary antibody and a horseradish peroxidase (HRP)-conjugated secondary antibody to develop a color; (3) verifying the expression of LPA receptors wherein B1-3 cells are transfected with haematoglutin (HA)-tagged LPA receptors, and then subjected to confocal laser microscopy using an anti-HA antibody and a fluorescence dye Cy3-conjugated secondary antibody; (4) transfecting the empty plasmid and each of the plasmids carrying LPA family receptor genes into B103 cells; (5) treating the transfected B103 cells with trypsin (0.05% trypsin with EDTA, w/v) 2-3 days post-transfection, to give a cell suspension; (6) culturing the suspended B103 cells with Fura-2AM (2.5 μM); and (7) treating the suspended B103 cells with gintonin and quantifying a change in intracellular free Ca^2+ level in a cuvette by spectrofluorephotometry using Fura-2AM.
Human LPA (lysophosphatidic acid) receptor subtypes, orphan GPCRs (G protein coupled receptors) and plasmids carrying GPCRs were purchased from Missouri S&T resource Center (www.cDNA.org).
The transient transfection of LPA receptor subtypes was carried out with the aid of Lipofectamine 2000 of Invitrogen. A plasmid (10.8 μg) carrying each LPA receptor (LPA1, LPA2, LPA3, LPA4, LPA5, and LPA6) was transfected into B103 cells grown in 10-cm dishes, and incubated for 2 days prior for use in experiments.
In this Example, gintonin, or ginsenoside Rb1 or Rg1 was examined for its ability to induce a transient increase of [Ca^2+]i in Fura-2AM-loaded B103 cells which were transfected with LPA receptors and in Fura-2AM-loaded B103 cells which were not transfected with LPA receptors. To this end, B103 cells (2˜4×10^6/ml) pre-treated with Fura-2AM were suspended in a 1.5 mM Ca^2+-containing buffer or Ca^2+-free buffer, and incubated 37° C. for 30 min, followed by analyzing intracellular calcium levels in the B103 cells in the presence of gintonin or ginsenosides.
Briefly, B103 cells (1˜2×10^6/ml) were mixed with 2.5 μM Fura 2-AM in a Ca^2+ buffer (pH 7.4) containing NaCl 120 mM, KCl 5 mM, MgCl2 1 mM, CaCl2 1.5 mM, glucose 10 mM, and HEPES 25 mM, and a Ca^2+ free buffer (pH 7.4) containing NaCl 120 mM, KCl 5 mM, MgCl2 1 mM, EGTA 0.2 mM, glucose 10 mM, and HEPES 25 mM at 37° C. for 30 min in water bath with shaking according to the Jørgensen method, and washed three times with Ca^2+ buffer or Ca^2+ free buffer to remove excess Fura-2AM.
[Ca^2+]i was estimated in Fura 2AM-loaded cells in suspension using an RF-5300PC intracellular ion measurement system (Shimadzu Corporation, Japan).
Briefly, Fura 2-AM loaded cells were diluted with an experimental medium to a final density of 2˜4×10^6 cells/mL, and transferred to polystyrene cuvettes (Elkay Ultra-VU). The cells were stirred using Teflon-coated magnets, and the cuvette housing was thermostatically controlled at 37° C. The excitation wavelengths were alternated between 340 and 380 nm under computer control. […]

[1] = system: LPA receptor-null B103 cells (empty vector); assay: Intracellular free Ca2+ (Fura-2AM) in B103 cells transfected with empty vector; type: cell-based, rat; details: B103 cells not expressing LPA3 receptor
Description: as §1, with “level. […]” for “level.”
Briefly, Fura 2-AM loaded cells were diluted with an experimental medium to a final density of 2˜4×10^6 cells/mL, and transferred to polystyrene cuvettes (Elkay Ultra-VU). […] Emission was detected at 510 nm Excitation and emission slit widths were 5 nm Background calibration was performed as described by Jørgensen et al. […]

endogenous CaCC = assay: Endogenous Ca2+-activated channel (CaCC) activation in Xenopus oocytes; type: cell-based, Xenopus laevis; details: Kil6425 10 μM; U73122 1 μM; 2-APB 100 μM; BAPTA 100 μM 3 h
BKCaK+ channels = assay: BKCa K+ channel activity in Xenopus oocytes, two-electrode voltage clamp; type: cell-based; details: 2-APB 100 μM, BAPTA-AM, PMA 1 μM; for effect on gintonin-induced BKCaK+ channel activation: Kil6425 10 μM, U73122, U73343 1 μM; for effect on ginsenoside Rg3-induced BKCaK+ channel activity: U73122 1 μM
Description: (§2) Xenopus laevis frogs were obtained from Xenopus I (Ann Arbor, Mich.). Their care and handling were in accordance with the highest standards of institutional guidelines. To isolate oocytes, the frogs were operated on under anesthesia with an aerated solution of 3-aminobenzoic acid ethyl ester. Oocytes were separated by treatment with collagenase and agitation for two hours in a Ca^2+-free medium containing 82.5 mM NaCl, 2 mM KCl, 1 mM MgCl2, 5 mM HEPES, 2.5 mM sodium pyruvate, 100 units/ml penicillin and 100 μg/ml streptomycin.
(§3) Stage V-VI oocytes were collected and stored in ND96 (96 mM NaCl, 2 mM KCl, 1 mM MgCl2, 1.8 mM CaCl2, and 5 mM HEPES, pH 7.4) supplemented with 50 μg/ml gentamicin. This oocyte containing solution was maintained at 18° C. with continuous gentle shaking while the ND96 medium was changed with a fresh one every day.
Two-electrode voltage-clamp recordings were obtained from individual oocytes placed in a small Plexiglas net chamber (5 ml). Electrophysiological experiments were performed using microelectrodes filled with 3 M KCl (resistance of 0.2-0.7 MΩ) and an Oocyte Clamp amplifier (OC-725C; Warner Instrument, CT, USA) to record BKc K^+ channel activity at room temperature (Choi et al., Mol Cells 31, 133-140, 2011). For physiological recordings of BKCaK^+ channel activity, oocytes were first perfused with a Cl^−- and Ca^2+-free solution (mM: 96 NaOH, 2 KOH, 8 Mg-gluconate, 5 HEPES, 5 EGTA, pH 7.4 with methanesulfonic acid) supplemented with 500 μM anthracene-9-carboxylic acid, a Cl^− channel blocker, to block endogenous Cl-channels (Lu et al., J. Biol. Chem. 265, 16190-16194.1990). Then, the oocytes were clamped at −80 mV holding potential, followed by step depolarization from the holding potential to +40 mV at regular intervals of […] for 400 ms to record outward currents.

[2] = system: NMDA receptors (NR1 and NR2); assay: NMDA receptor activity in Xenopus oocytes, two-electrode voltage clamp; type: cell-based; details: Kil6425 10 μM, 2-APB 100 μM, BAPTA 100 μM 3 h
Description: cDNAs of NMDA receptor subunits (NR1 and NR2) were employed (Zheng et al., J Neurosci. 17, 8676-8686, 1997). cDNAs (100 ng/40 nl) corresponding to respective NMDA receptor subunits (NR1 and NR2) were injected into animal or vegetal poles of oocytes by use of a […] (VWR Scientific, USA) and incubated for 4-5 days after injection (Zheng et al., J Neurosci. 17, 8676-8686, 1997).
as §2
as §3, with “changed to” for “changed with”
Two-electrode voltage-clamp recordings were obtained from individual oocytes placed in a small Plexiglas net chamber (5 ml). Electrophysiological experiments were performed using microelectrodes filled with 3 M KCl (resistance of 0.2-0.7 MΩ) and an Oocyte Clamp amplifier (OC-725C; Warner Instrument, Hamden, Conn.). For physiological recordings of NMDA receptor activity, oocytes were first perfused with Mg^2+-free ND96 (mM: 96 NaOH, 2 KOH, 0.3 CaCl2, 5 HEPES pH 7.6 with methanesulfonic acid). Then, the oocytes were clamped at −60 mV holding potential, followed by recoding NMDA currents (induced by administering […]) (Zheng et al., J Neurosci. 17, 8676-8686, 1997; Chang and Kuo, J Neurosci. 28, 1546-1556, 2008).

LPA receptor = assay: Gintonin-induced intracellular Ca2+ increase in LPA receptor-expressing B103 cells (subtype not named); type: cell-based, human; details: pretreated
Description: Optionally, the method may further comprise (8) pre-treating the suspended B103 cells with LPA receptor antagonists and LPA receptor-mediated signaling-relevant drugs (e.g., pertussis toxin, PLC inhibitors, IP3 receptor antagonists) to examine whether the cells decrease or increase in intracellular free Ca^2+, prior to treatment with gintonin; (9) performing site-directed mutagenesis to identify an amino acid of LPA receptors with which gintonin interact to activate the LPA; and (10) examining whether gintonin activates orphan GPCRs including GPR35 and GPR87, and free fatty acid GPCRs including GPR40, GPR41, GPR43 and GPR120, all known for activation by LPA.
In this Example, gintonin, or ginsenoside Rb1 or Rg1 was examined for its ability to induce a transient increase of [Ca^2+]i in Fura-2AM-loaded B103 cells which were transfected with LPA receptors and in Fura-2AM-loaded B103 cells which were not transfected with LPA receptors. […]
Briefly, Fura 2-AM loaded cells were diluted with an experimental medium to a final density of 2˜4×10^6 cells/mL, and transferred to polystyrene cuvettes (Elkay Ultra-VU). […] Emission was detected at 510 nm Excitation and emission slit widths were 5 nm Background calibration was performed as described by Jørgensen et al.

Molecule	EC50 (LPA3 receptor)	increase of intracellular calcium level [1]	effect on gintonin-induced CaCC activation (endogenous CaCC)	effect on gintonin-induced BKCaK+ channel activation (BKCaK+ channels)	effect on ginsenoside Rg3-induced BKCaK+ channel activity (BKCaK+ channels)	effect on NMDA-induced inward current ([2]; U73122 1 μM)	effect on gintonin-induced NMDA receptor activation ([2]; gintonin 1 μg/ml, U73122, U73343 1 μM, genistein 10 μM, PP2, PP3 30 μM)	effect of pretreatment on gintonin-induced intracellular calcium increase (LPA receptor)
lysophosphatidic acid [LPA, reference compound]	58.9 ± 5.54 nM	did not induce the increase of intracellular calcium level	–	–	–	–	–	–
O=C(O)CN(CC(=O)O)c1ccccc1OCCOc1ccccc1N(CC(=O)O)CC(=O)O [BAPTA]	–	–	a reduction in gintonin-induced CaCC activation	a reduction in BKCaK^+ channel activation	not blocked	normal NMDA-induced inward currents	reduction	became invalid
CCCCCCCCCCCCCC(=O)O[C@@H]1[C@@H](C)[C@@]2(O)[C@@H](C=C(CO)C[C@]3(O)C(=O)C(C)=C[C@@H]23)[C@@H]2C(C)(C)[C@]12OC(C)=O [PMA]	–	–	–	caused the gintonin-induced activation of BKCaK^+ channels to disappear	had no influences on the activity of ginsenoside Rg3	–	–	blocked
